In patent US10988449B2, “Isoxazole derivatives as nuclear receptor agonists and uses thereof” (IL DONG PHARMACEUTICAL CO., LTD., priority 2017, dated 2021):
Where a name gives a salt, the structure may show the parent alone.

Molecular target: T1, human FXR (Homo sapiens, UniProt Q96RI1)
T1 construct: expressed in transfected cells
T1 sequence (Q96RI1 1-486): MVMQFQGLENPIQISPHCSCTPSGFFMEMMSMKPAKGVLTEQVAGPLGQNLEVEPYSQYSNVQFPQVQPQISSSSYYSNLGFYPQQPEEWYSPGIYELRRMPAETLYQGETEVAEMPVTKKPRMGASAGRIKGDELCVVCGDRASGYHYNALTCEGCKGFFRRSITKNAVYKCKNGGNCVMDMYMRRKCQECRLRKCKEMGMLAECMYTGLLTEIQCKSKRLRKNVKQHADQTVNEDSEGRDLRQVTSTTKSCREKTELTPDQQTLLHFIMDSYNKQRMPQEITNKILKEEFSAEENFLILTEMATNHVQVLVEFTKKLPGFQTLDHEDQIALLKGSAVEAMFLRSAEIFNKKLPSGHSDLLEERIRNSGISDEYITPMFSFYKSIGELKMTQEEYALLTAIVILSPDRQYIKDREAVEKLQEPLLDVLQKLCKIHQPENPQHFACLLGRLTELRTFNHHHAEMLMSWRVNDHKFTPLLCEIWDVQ
Test: FXR reporter assay (cellular FXR activities)
Type: cell-based
Details: for EC50: FXR reporter cells, 24 hours incubation, luciferase, read-out: Reporter Cell EC50; for Emax: read-out: Emax (%) (GW4064 Emax = 100%)
Protocol: FXR reporter assay was performed to measure cellular FXR activities of the compounds in the present invention. FXR reporter cells with high expression level of human FXR were seeded into 96-well cell culture plates, and incubated for 1-2 hours at 37° C. under 5% CO2 atmosphere. The invented compounds diluted in DMSO with various concentrations were added to the 96-well cell culture plates, and they were incubated for 24 hours at 37° C. under 5% CO2 atmosphere. After incubation, we calculate EC50 by using luciferase substrate.

Structure (SMILES) | EC50 [nM] | Emax [%]
O=C(O)c1cc(C#Cc2ccc(OCc3c(-c4c(Cl)cccc4Cl)noc3C3CC3)cc2Cl)cc(C(=O)O)c1 [Compound I-84, 5-((2-chloro-4-((5-cyclopropyl-3-(2,6-dichlorophenyl)isoxazol-4-yl)methoxy)phenyl)ethynyl)isophthalic acid] | 200 to 1000 | 98
C#Cc1cc(C#Cc2ccc(OCc3c(-c4c(Cl)cccc4Cl)noc3C3CC3)cc2Cl)cc(C(=O)O)c1 [Compound I-32, 3-((2-chloro-4-((5-cyclopropyl-3-(2,6-dichlorophenyl)isoxazol-4-yl)methoxy)phenyl)ethynyl)-5-ethynylbenzoic acid] | 60 to 200 | 94
O=C(O)c1cc(C#Cc2ccc(OCc3c(-c4c(Cl)cccc4Cl)noc3C3CC3)cc2Cl)cc2c1OCC2 [Compound I-100, 5-((2-chloro-4-((5-cyclopropyl-3-(2,6-dichlorophenyl)isoxazol-4-yl)methoxy)phenyl)ethynyl)-2,3-dihydrobenzofuran-7-carboxylic acid] | 60 to 200 | > 100
O=C(O)c1cc(C#Cc2ccc(OCc3c(-c4c(Cl)cccc4Cl)noc3C3CC3)cc2Cl)c2ccn(CCN3CCOCC3)c2c1 [Compound I-95, 4-((2-chloro-4-((5-cyclopropyl-3-(2,6-dichlorophenyl)isoxazol-4-yl)methoxy)phenyl)ethynyl)-1-(2-morpholinoethyl)-1H-indole-6-carboxylic acid hydrochloride] | 20 to 60 | > 100
O=C(O)c1cccc(C#Cc2ccc(OCc3c(-c4c(Cl)cccc4Cl)noc3C3CC3)cc2Cl)n1 [Compound I-19, 6-((2-chloro-4-((5-cyclopropyl-3-(2,6-dichlorophenyl)isoxazol-4-yl)methoxy)phenyl)ethynyl)picolinic acid] | ≤ 20 | 99
O=Cc1cc(C#Cc2ccc(OCc3c(-c4c(Cl)cccc4Cl)noc3C3CC3)cc2Cl)cc(C(=O)O)c1 [Compound I-41, 3-((2-chloro-4-((5-cyclopropyl-3-(2,6-dichlorophenyl)isoxazol-4-yl)methoxy)phenyl)ethynyl)-5-formylbenzoic acid] | 20 to 60 | > 100
CCNc1cc(C#Cc2ccc(OCc3c(-c4c(Cl)cccc4Cl)noc3C3CC3)cc2Cl)cc(C(=O)O)c1 [Compound I-53, 3-((2-chloro-4-((5-cyclopropyl-3-(2,6-dichlorophenyl)isoxazol-4-yl)methoxy)phenyl)ethynyl)-5-(ethylamino)benzoic acid] | ≤ 20 | 93
CS(=O)(=O)Nc1cccc(C#Cc2ccc(OCc3c(-c4c(Cl)cccc4Cl)noc3C3CC3)cc2Cl)c1 [Compound I-13, N-(3-((2-chloro-4-((5-cyclopropyl-3-(2,6-dichlorophenyl)isoxazol-4-yl)methoxy)phenyl)ethynyl)phenyl)methanesulfonamide] | 200 to 1000 | 90
CN(C)c1ccc(C(=O)O)cc1C#Cc1ccc(OCc2c(-c3c(Cl)cccc3Cl)noc2C2CC2)cc1Cl [Compound I-26, 3-((2-chloro-4-((5-cyclopropyl-3-(2,6-dichlorophenyl)isoxazol-4-yl)methoxy)phenyl)ethynyl)-4-(dimethylamino)benzoic acid] | 200 to 1000 | > 100
COc1c(N)cc(C(=O)O)cc1C#Cc1ccc(OCc2c(-c3c(Cl)cccc3Cl)noc2C2CC2)cc1Cl [Compound I-61, 3-amino-5-((2-chloro-4-((5-cyclopropyl-3-(2,6-dichlorophenyl)isoxazol-4-yl)methoxy)phenyl)ethynyl)-4-methoxybenzoic acid] | 60 to 200 | 95
O=C(O)c1ccc(C#Cc2ccc(OCc3c(-c4c(Cl)cccc4Cl)noc3C3CC3)cc2C(F)(F)F)cc1 [Compound I-4, 4-((4 ((5-cyclopropyl-3-(2,6-dichlorophenyl)isoxazol-4-yl)methoxy)-2-(trifluoromethyl)phenyl)ethynyl)benzoic acid] | 60 to 200 | 91
O=C(O)c1ccc(C#Cc2ccc(OCc3c(-c4c(Cl)cccc4Cl)noc3C3CC3)cc2Cl)nc1 [Compound I-17, 6-((2-chloro-4-((5-cyclopropyl-3-(2,6-dichlorophenyl)isoxazol-4-yl)methoxy)phenyl)ethynyl)nicotinic acid] | 200 to 1000 | 89
CCOC(=O)N(C)c1cc(C#Cc2ccc(OCc3c(-c4c(Cl)cccc4Cl)noc3C3CC3)cc2Cl)cc(C(=O)O)c1 [Compound I-75] | 20 to 60 | 93
O=C(O)c1cc(C#Cc2ccc(OCc3c(-c4c(Cl)cccc4Cl)noc3C3CC3)cc2Cl)cc(N2CCNCC2)c1 [Compound I-59, 3-((2-chloro-4-((5-cyclopropyl-3-(2,6-dichlorophenyl)isoxazol-4-yl)methoxy)phenyl)ethynyl)-5-(piperazin-1-yl)benzoic acid hydrochloride] | 200 to 1000 | 90
CCCc1nc2c(C(=O)O)cc(C#Cc3ccc(OCc4c(-c5c(Cl)cccc5Cl)noc4C4CC4)cc3Cl)cc2o1 [Compound I-114, 6 ((2-chloro-((5-cyclopropyl-3-(2,6-dichlorophenyl)isoxazol-4-yl)methoxy)phenyl)ethynyl)-2-propylbenzo[d]oxazole-4-carboxylic acid] | 20 to 60 | > 100
O=C(O)c1cc(C#Cc2ccc(OCc3c(-c4c(Cl)cccc4Cl)noc3C3CC3)cc2Cl)cc2nc(CO)oc12 [Compound I-107, 5-((2-chloro-4-((5-cyclopropyl-3-(2,6-dichlorophenyl)isoxazol-4-yl)methoxy)phenyl)ethynyl)-2-(hydroxymethyl)benzo[d]oxazole-7-carboxylic acid] | > 1000 | > 100
O=C(O)c1cc(C#Cc2ccc(OCc3c(-c4c(Cl)cccc4Cl)noc3C3CC3)cc2Cl)ccc1Cl [Compound I-29, 2-chloro-5-((2-chloro-4-((5-cyclopropyl-3-(2,6-dichlorophenyl)isoxazol-4-yl)methoxy)phenyl)ethynyl)benzoic acid] | 60 to 200 | 93
O=C(O)c1cc(C#Cc2ccc(OCc3c(-c4c(Cl)cccc4Cl)noc3C3CC3)cc2Cl)ccc1F [Compound I-37, 5-((2-chloro-4-((5-cyclopropyl-3-(2,6-dichlorophenyl)isoxazol-4-yl)methoxy)phenyl)ethynyl)-2-fluorobenzoic acid] | 60 to 200 | 94
O=C(O)c1cc(C#Cc2ccc(OCc3c(-c4c(Cl)cccc4Cl)noc3C3CC3)cc2Cl)cc(CN2CCOCC2)c1 [Compound I-50, 3-((2-chloro-4-((5-cyclopropyl-3-(2,6-dichlorophenyl)isoxazol-4-yl)methoxy)phenyl)ethynyl)-5-(morpholinomethyl)benzoic acid] | 20 to 60 | > 100
N#Cc1cc(C#Cc2ccc(OCc3c(-c4c(Cl)cccc4Cl)noc3C3CC3)cc2Cl)cc(C(=O)O)c1 [Compound I-33, 3-((2-chloro-4-((5-cyclopropyl-3-(2,6-dichlorophenyl)isoxazol-4-yl)methoxy)phenyl)ethynyl)-5-cyanobenzoic acid] | 60 to 200 | 99
O=C(O)c1cc(C#Cc2ccc(OCc3c(-c4c(Cl)cccc4Cl)noc3C3CC3)cc2Cl)cc(C2CC2)c1 [Compound I-64, 3-((2-chloro-4-((5-cyclopropyl-3-(2,6-dichlorophenyl)isoxazol-4-yl)methoxy)phenyl)ethynyl)-5-cyclopropylbenzoic acid] | 20 to 60 | > 100
CCOC(=O)Nc1cccc(C#Cc2ccc(OCc3c(-c4c(Cl)cccc4Cl)noc3C3CC3)cc2Cl)c1 [Compound I-11, ethyl (3-((2-chloro-4-((5-cyclopropyl-3-(2,6-dichlorophenyl)isoxazol-4-yl)methoxy)phenyl)ethynyl)phenyl)carbamate] | > 1000 | 90
COc1c(N)cc(C#Cc2ccc(OCc3c(-c4c(Cl)cccc4Cl)noc3C3CC3)cc2Cl)cc1C(=O)O [Compound I-62, 3-amino-5-((2-chloro-4-((5-cyclopropyl-3-(2,6-dichlorophenyl)isoxazol-4-yl)methoxy)phenyl)ethynyl)-2-methoxybenzoic acid] | 60 to 200 | > 100
O=C(O)c1ccnc(C#Cc2ccc(OCc3c(-c4c(Cl)cccc4Cl)noc3C3CC3)cc2Cl)c1 [Compound I-18, 2-((2-chloro-4-((5-cyclopropyl-3-(2,6-dichlorophenyl)isoxazol-4-yl)methoxy)phenyl)ethynyl)isonicotinic acid] | 200 to 1000 | 87
O=C(O)c1cccc(C#Cc2ccc(OCc3c(-c4c(Cl)cccc4Cl)noc3C3CC3)cc2Cl)c1Cl [Compound I-35, 2-chloro-3-((2-chloro-4-((5-cyclopropyl-3-(2,6-dichlorophenyl)isoxazol-4-yl)methoxy)phenyl)ethynyl)benzoic acid] | 200 to 1000 | 86
O=C(O)c1cccc(C#Cc2c(Cl)cc(OCc3c(-c4c(Cl)cccc4Cl)noc3C3CC3)cc2Cl)c1 [Compound I-34, 3-((2,6-dichloro-4-((5-cyclopropyl-3-(2,6-dichlorophenyl)isoxazol-4-yl)methoxy)phenyl)ethynyl)benzoic acid] | 60 to 200 | 100
